Read-outs that look alike come from different tables or passages of the source.
Legend:
[1] = tested on: Phaeosphaeria nodorum; assay: Antifungal test for pathogens (PDA plate), P.n; assay type: cell-based; details: PDA plate medium
[2] = tested on: Rhynchosporium secalis; assay: Antifungal test for pathogens (PDA plate), R.sec; assay type: cell-based; details: PDA plate medium
[3] = tested on: Sclerotinia sclerotiorum; assay: Antifungal test for pathogens (PDA plate), S.s; assay type: cell-based; details: PDA plate medium
[4] = tested on: Botrytis cinerea; assay: Gray mold disease control effect on cucumbers, foliar spray treatment; assay type: in vivo; details: cucumber gray mold, wettable powder foliar spray 1,000 L/ha, four days after inoculation
[5] = tested on: wheat; assay: Phytotoxicity evaluation of growth inhibition of wheat seeds, seed treatment; assay type: in vivo; details: fifteen days after seeding, untreated 21 cm
Description: A pot test was used to perform a phytotoxicity evaluation of growth inhibition using a seed treatment. Compound (1(−)) or Compound (1(+)) was dissolved in DMSO so the treatment amount was 2 or 20 g ai/100 kg seeds, and the solution was smeared on wheat seeds in a vial, and eight wheat seeds were seeded in a 80 cm^2 pot. These were irrigated from below in a greenhouse. Fifteen days after seeding, the length of the wheat was evaluated.

[6] = tested on: Ustilago nuda; assay: Antifungal test for pathogens (PDA plate), U.n; assay type: cell-based; details: PDA plate medium
[7] = tested on: Fusarium graminearum; assay type: cell-based; details: PDA plate medium
[8] = tested on: Fusarium oxysporum; assay: Antifungal test for pathogens (PDA plate), F.c; assay type: cell-based; details: PDA plate medium
[9] = tested on: wheat leaf rust; assay: Rust control effect on wheat, foliar spray treatment; assay type: in vivo; details: wettable powder foliar spray 1,000 L/ha, twelve days after inoculation
[10] = tested on: Gaeumannomyces graminis; assay: Antifungal test for pathogens (PDA plate), G.g; assay type: cell-based; details: PDA plate medium
[11] = tested on: wheat brown rust; assay: Brown rust control effect on wheat, seed treatment; assay type: in vivo; details: sixteen days after inoculation
Description: A pot test was performed to evaluate the brown rust controlling effect on wheat using seed treatment. Compound (1(−)) or Compound (1(+)) was dissolved in DMSO so the treatment amount was 20 g ai/100 kg seeds or 2 g ai/100 kg seeds, and the solution was smeared on wheat seeds in a vial, and eight wheat seeds were seeded in a 80 cm^2 pot. These were irrigated from below in a greenhouse. Fifteen days after seeding, the seedlings were inoculated with wheat brown rust and then kept for two days in a box. These were again irrigated from below in a greenhouse.

[12] = tested on: wheat leaf blight; assay: Leaf blotch control effect on wheat, foliar spray treatment; details: wettable powder foliar spray 1,000 L/ha, thirty days after inoculation
Description: After blow drying the sprayed leaves, the plants were sprinkled and inoculated with wheat leaf blight. Thirty days after inoculation, the morbidity of the wheat to powdery mildew was evaluated according to the criteria shown in Table 3, and the preventative value was calculated using the following equation. When the average morbidity of the sprayed plot was higher than the average morbidity of the unsprayed plot, the preventative value was 0%. Preventative value (%)=(1−(average morbidity of the sprayed plot/average morbidity of the unsprayed plot))×100.

[13] = tested on: Gibberella fujikuroi; assay: Antifungal test for pathogens (PDA plate), G.f; assay type: cell-based; details: PDA plate medium
[14] = tested on: Rhizopus oryzae; assay: Antifungal test for pathogens (PDA plate), R.o; assay type: cell-based; details: PDA plate medium
[15] = tested on: Cercospora beticola; assay: Antifungal test for pathogens (PDA plate), C.b; assay type: cell-based; details: PDA plate medium
[16] = tested on: Rhizoctonia solani; assay: Antifungal test for pathogens (PDA plate), R.s; assay type: cell-based; details: PDA plate medium
[17] = tested on: Penicillium italicum; assay: Antifungal test for pathogens (PDA plate), P.i; assay type: cell-based; details: PDA plate medium
[18] = tested on: Pseudocercoporella herpotrichoides; assay: Antifungal test for pathogens (PDA plate), P.h; assay type: cell-based; details: PDA plate medium
[19] = tested on: Wheat leaf blight (Septoria tritici); assay: Antifungal test against wheat leaf blight (PDA plate); details: 19 days at 25° C.
Description: Wheat leaf blight (Septoria tritici) cultured beforehand in a medium plate was punched out with a 4 mm-diameter cork borer, and inoculated in the plate media containing the agent. After inoculation, they were cultured for 19 days at 25° C., and the growth of the fungus was determined by the diameter of the growth. The growth rate of the fungus in the plate media containing the agent was compared to the growth rate of the fungus in the plate medium not containing the agent, and the filamentous fungi inhibition rate was determined using the following equation. In the equation, R is the filamentous fungi inhibition rate (%), dc is the diameter of the fungal growth in the untreated plate media, and dt is the diameter of the fungal growth in the treated plate media. R=100(dc−dt)/dc

[20] = tested on: Alternaria alternata; assay: Antifungal test for pathogens (PDA plate), A.m; assay type: cell-based; details: PDA plate medium
[21] = tested on: Pyricularia oryzae; assay type: cell-based; details: PDA plate medium
[22] = tested on: Microdochium nivale; assay: Antifungal test for pathogens (PDA plate), M.n; assay type: cell-based; details: PDA plate medium
[23] = tested on: Botrytis cinerea; assay: Antifungal test for pathogens (PDA plate), B.c; assay type: cell-based; details: PDA plate medium
[24] = tested on: powdery mildew; assay: Powdery mildew control effect on wheat, foliar spray treatment; assay type: in vivo; details: wettable powder foliar spray 1,000 L/ha, seven days after inoculation
[25] = tested on: Pyrenophora graminea; assay: Antifungal test for pathogens (PDA plate), P.g; assay type: cell-based; details: PDA plate medium
[26] = tested on: Glomerella cingurata; assay: Antifungal test for pathogens (PDA plate), G.c; assay type: cell-based; details: PDA plate medium

Compound: COC(=O)[C@]1(C)CC[C@H](Cc2ccc(Cl)cc2)[C@@]1(O)Cn1cncn1 (relative stereo) [Compound (1(−)), (1,2-cis, 1,3-cis)-3-(4-chlorobenzyl)-2-hydroxy-1-methyl-2-(1H-1,2,4-triazole-1-ylmethyl)cyclopentanecarboxylic acid methyl ester]
- Antifungal Index of Each Strain P.n ([1]; Sample Conc. 1.25 mg/L): 5 (>90%)
- Antifungal Index of Each Strain P.n ([1]; Sample Conc. 2.5 mg/L): 5 (>90%)
- Antifungal Index of Each Strain P.n ([1]; Sample Conc. 5 mg/L): 5 (>90%)
- Antifungal Index of Each Strain R.sec ([2]; Sample Conc. 0.08 mg/L): 5 (>90%)
- Antifungal Index of Each Strain R.sec ([2]; Sample Conc. 0.16 mg/L): 5 (>90%)
- Antifungal Index of Each Strain R.sec ([2]; Sample Conc. 0.31 mg/L): 5 (>90%)
- Antifungal Index of Each Strain R.sec ([2]; Sample Conc. 0.63 mg/L): 5 (>90%)
- Antifungal Index of Each Strain S.s ([3]; Sample Conc. 1.25 mg/L): 5 (>90%)
- Antifungal Index of Each Strain S.s ([3]; Sample Conc. 2.5 mg/L): 5 (>90%)
- Antifungal Index of Each Strain S.s ([3]; Sample Conc. 5 mg/L): 5 (>90%)
- Preventative Value (%) ([4]; sample conc. 12.5 mg/L): 64.7%
- Preventative Value (%) ([4]; sample conc. 50.0 mg/L): 100%
- Average Plant Length (cm) ([5]; wheat seed treatment 2 g ai/100 kg seeds): 11 cm
- Average Plant Length (cm) ([5]; wheat seed treatment 20 g ai/100 kg seeds): 6 cm
- Antifungal Index of Each Strain U.n ([6]; Sample Conc. 1.25 mg/L): 5 (>90%)
- Antifungal Index of Each Strain U.n ([6]; Sample Conc. 2.5 mg/L): 5 (>90%)
- Antifungal Index of Each Strain U.n ([6]; Sample Conc. 5 mg/L): 5 (>90%)
- Antifungal Index of Each Strain F.g ([7]; Sample Conc. 1.25 mg/L): 5 (>90%)
- Antifungal Index of Each Strain F.g ([7]; Sample Conc. 2.5 mg/L): 5 (>90%)
- Antifungal Index of Each Strain F.g ([7]; Sample Conc. 5 mg/L): 5 (>90%)
- Antifungal Index of Each Strain F.c ([8]; Sample Conc. 1.25 mg/L): 5 (>90%)
- Antifungal Index of Each Strain F.c ([8]; Sample Conc. 2.5 mg/L): 5 (>90%)
- Antifungal Index of Each Strain F.c ([8]; Sample Conc. 5 mg/L): 5 (>90%)
- Preventative Value (%) ([9]; sample conc. 0.8 mg/L): 83.5%
- Preventative Value (%) ([9]; sample conc. 3.1 mg/L): 92.9%
- Antifungal Index of Each Strain G.g ([10]; Sample Conc. 1.25 mg/L): 5 (>90%)
- Antifungal Index of Each Strain G.g ([10]; Sample Conc. 2.5 mg/L): 5 (>90%)
- Antifungal Index of Each Strain G.g ([10]; Sample Conc. 5 mg/L): 5 (>90%)
- Preventative Value (%) ([11]; seed treatment 2 g ai/100 kg seeds): 70%
- Preventative Value (%) ([11]; seed treatment 20 g ai/100 kg seeds): 100%
- Preventative Value (%) ([12]; sample conc. 12.5 mg/L): 37.5%
- Preventative Value (%) ([12]; sample conc. 50 mg/L): 65%
- Antifungal Index of Each Strain G.f ([13]; Sample Conc. 1.25 mg/L): 5 (>90%)
- Antifungal Index of Each Strain G.f ([13]; Sample Conc. 2.5 mg/L): 5 (>90%)
- Antifungal Index of Each Strain G.f ([13]; Sample Conc. 5 mg/L): 5 (>90%)
- Antifungal Index of Each Strain R.o ([14]; Sample Conc. 1.25 mg/L): 5 (>90%)
- Antifungal Index of Each Strain R.o ([14]; Sample Conc. 2.5 mg/L): 5 (>90%)
- Antifungal Index of Each Strain R.o ([14]; Sample Conc. 5 mg/L): 5 (>90%)
- Antifungal Index of Each Strain C.b ([15]; Sample Conc. 0.08 mg/L): 5 (>90%)
- Antifungal Index of Each Strain C.b ([15]; Sample Conc. 0.16 mg/L): 5 (>90%)
- Antifungal Index of Each Strain C.b ([15]; Sample Conc. 0.31 mg/L): 5 (>90%)
- Antifungal Index of Each Strain C.b ([15]; Sample Conc. 0.63 mg/L): 5 (>90%)
- Antifungal Index of Each Strain R.s ([16]; Sample Conc. 1.25 mg/L): 5 (>90%)
- Antifungal Index of Each Strain R.s ([16]; Sample Conc. 2.5 mg/L): 5 (>90%)
- Antifungal Index of Each Strain R.s ([16]; Sample Conc. 5 mg/L): 5 (>90%)
- Antifungal Index of Each Strain P.i ([17]; Sample Conc. 0.08 mg/L): 1 (<60%)
- Antifungal Index of Each Strain P.i ([17]; Sample Conc. 0.16 mg/L): 1 (<60%)
- Antifungal Index of Each Strain P.i ([17]; Sample Conc. 0.31 mg/L): 3 (80%-70%)
- Antifungal Index of Each Strain P.i ([17]; Sample Conc. 0.63 mg/L): 5 (>90%)
- Antifungal Index of Each Strain P.h ([18]; Sample Conc. 1.25 mg/L): 5 (>90%)
- Antifungal Index of Each Strain P.h ([18]; Sample Conc. 2.5 mg/L): 5 (>90%)
- Antifungal Index of Each Strain P.h ([18]; Sample Conc. 5 mg/L): 5 (>90%)
- Antifungal Index ([19]; sample conc. 0.31 mg/L): 1 (<60%)
- Antifungal Index ([19]; sample conc. 0.63 mg/L): 2 (70%-60%)
- Antifungal Index ([19]; sample conc. 1.25 mg/L): 4 (90%-80%)
- Antifungal Index of Each Strain A.m ([20]; Sample Conc. 1.25 mg/L): 3 (80%-70%)
- Antifungal Index of Each Strain A.m ([20]; Sample Conc. 2.5 mg/L): 4 (90%-80%)
- Antifungal Index of Each Strain A.m ([20]; Sample Conc. 5 mg/L): 5 (>90%)
- Antifungal Index of Each Strain P.o ([21]; Sample Conc. 1.25 mg/L): 4 (90%-80%)
- Antifungal Index of Each Strain P.o ([21]; Sample Conc. 2.5 mg/L): 5 (>90%)
- Antifungal Index of Each Strain P.o ([21]; Sample Conc. 5 mg/L): 5 (>90%)
- Antifungal Index of Each Strain M.n ([22]; Sample Conc. 1.25 mg/L): 3 (80%-70%)
- Antifungal Index of Each Strain M.n ([22]; Sample Conc. 2.5 mg/L): 5 (>90%)
- Antifungal Index of Each Strain M.n ([22]; Sample Conc. 5 mg/L): 5 (>90%)
- Antifungal Index of Each Strain B.c ([23]; Sample Conc. 1.25 mg/L): 5 (>90%)
- Antifungal Index of Each Strain B.c ([23]; Sample Conc. 2.5 mg/L): 5 (>90%)
- Antifungal Index of Each Strain B.c ([23]; Sample Conc. 5 mg/L): 5 (>90%)
- Preventative Value (%) ([24]; sample conc. 12.5 mg/L): 96%
- Preventative Value (%) ([24]; sample conc. 50.0 mg/L): 98%
- Antifungal Index of Each Strain P.g ([25]; Sample Conc. 0.08 mg/L): 2 (70%-60%)
- Antifungal Index of Each Strain P.g ([25]; Sample Conc. 0.16 mg/L): 3 (80%-70%)
- Antifungal Index of Each Strain P.g ([25]; Sample Conc. 0.31 mg/L): 4 (90%-80%)
- Antifungal Index of Each Strain P.g ([25]; Sample Conc. 0.63 mg/L): 5 (>90%)
- Antifungal Index of Each Strain G.c ([26]; Sample Conc. 1.25 mg/L): 5 (>90%)
- Antifungal Index of Each Strain G.c ([26]; Sample Conc. 2.5 mg/L): 5 (>90%)
- Antifungal Index of Each Strain G.c ([26]; Sample Conc. 5 mg/L): 5 (>90%)

Compound: CC1(C)CCC(Cc2ccc(Cl)cc2)C1(O)Cn1cncn1 (centres unmarked) [Metconazole, reference compound]
- Preventative Value (%) ([9]; sample conc. 0.8 mg/L): 34.1%
- Preventative Value (%) ([9]; sample conc. 3.1 mg/L): 81.1%
- Preventative Value (%) ([12]; sample conc. 12.5 mg/L): 0%
- Preventative Value (%) ([12]; sample conc. 50 mg/L): 62.5%
- Antifungal Index ([19]; sample conc. 0.31 mg/L): 1 (<60%)
- Antifungal Index ([19]; sample conc. 0.63 mg/L): 2 (70%-60%)
- Antifungal Index ([19]; sample conc. 1.25 mg/L): 4 (90%-80%)
